Data on two compounds can be found in paper PMC10721898, “C5 methylation confers accessibility, stability and selectivity to picrotoxinin” (Nature Communications, 2023).

Data set [1] can be described thus: Stability in human plasma. Type of data set: in vitro ADME. Particulars: for T½ in human plasma / half-life at 2 µM: 37 °C, incubation to 120 min, extrapolated half-life, n = 2; for half-life at 2 µM / remaining at 0 h, 2 µM / remaining at 10 min, 2 µM / remaining at 0.5 h, 2 µM / remaining at 1 h, 2 µM / remaining at 2 h, 2 µM: both sexes, human, plasma; for half-life at 2 µM: read-out: T½ in human plasma; for remaining at 0 h, 2 µM: 0 min; for remaining at 0.5 h, 2 µM: 30 min; for remaining at 1 h, 2 µM: 60 min; for remaining at 2 h, 2 µM: 120 min. The source says: We investigated the relative rates of esterase-mediated hydrolysis[17] observed in mouse and human plasma, to evaluate potential for future translational applications. […] Due to the high stability of the C15 lactone, identified above, combined with the kinetic lability and reversible opening of the C11 lactone identified previously, enzymatic degradation in serum likely reflects a combination of reversible C11 hydrolysis[38] (unaffected by C5 methylation) and irreversible C15 hydrolysis (obstructed by C5 methylation)[17]. No prior studies have identified PXN modifications that enhance metabolic stability, partly due to the difficulty of synthetic modification and partly due to the prior incorrect assignment of the site of kinetic hydrolysis (C11 vs. C15)[38].
Test compound working solution: 5 μL of tested compound stock solution (10 mM in DMSO) were diluted with 495 μL of DMSO (concentration: 100 μM, 100% DMSO). Propantheline bromide working solution: 5 μL of propantheline bromide stock solution (10 mM in DMSO) were diluted with 495 μL of H2O (concentration: 100 […]
Supplementary Table 6. Test system.
Species/ Matrix Minimum No. of Anticoagulant Vendor
CD-1 Mouse 20 Male EDTA-K2 Beijing Vital River Laboratory
Human Plasma 3 Male & 3 Female EDTA-K2 BioreclamationIVT
The pooled frozen plasma was thawed in a water bath at 37 °C prior to experiment. Plasma was centrifuged at 1968 g (4000 rpm) for 5 min and the clots were removed. Using an Apricot automation work station, 98 μL/well of blank plasma were added to all 96-well reaction plates. (Blank, T0, T10, T30, T60 and T120) . An Apricot automation workstation was used to add 2 μL/well of working solution (100 μM) to all reaction plates except Blank. (T0, T10, T30, T60 and T120) . All reaction plates containing mix tures of compound a nd plasma were incubated at 37 °C in water bath. The reaction plates were incubated at 37 °C, and timer was started. At the end of incubation, 400 μL of stock solution was added (200 ng/mL tolbutamide and 200 ng/mL labetalol in MeCN) to precipitate protein and mixed thoroughly. Each plate was sealed and shaken for 20 minutes, then centrifuged at 1968 g (4000 rpm) and 4 °C for 20 minutes. After centrifugation, an Apricot automation workstation was used to transfer 150 μL supernatant. Each bioanalysis plate was sealed and shaken for 10 minutes prior to LC -MS/MS […]
The % remaining of test compound after incubation in plasma was calculated using following equation:
% Remaining= 100 x (PAR at appointed incubation time / PAR at T0 time) where PAR is the peak area ratio of analyte versus internal standard (IS) The appointed incubation time points are T0 (0 min), Tn (n=0, 10, 30, 60, 120 min)
Supplementary Table 7. %Remaining of test compound in two plasmas.
Compound Time point (min) % Remaining T½ (min)

A further data set deals with rat GABAA ion channel. Particulars: preliminary screen; read-out: IC50, competition with [3H]TBOB for binding to rat cerebral cortex; cited from earlier work.
The conditions of data set [2]: reversible solvolysis; cited from earlier work.

Several values for one entry are separate records, joined by “and”; a condition that tells them apart may be missing. Identical values can stand only once.

The term IC50 denotes the concentration that gives 50% inhibition. Consider `C=C(C)C1C2OC(=O)C1(C)C1(O)CC3OC34C(=O)OC2C41C` (centres unmarked) [5MePXN, 5-methylpicrotoxinin], for which, in data set [1] (5MePXN vs. PXN), the “increase of extrapolated half-life by C5 methylation, human plasma” value is on record as 2.7 X. Also, in data set [1], the “T½ in human plasma” value was 4.82 h and > 4.82 h; the half-life at 2 µM is 4.82 h; the fraction remaining at 0 h, 2 µM is 100%; the amount remaining at 10 min, 2 µM is 103%. In data set [1], the fraction remaining at 0.5 h, 2 µM was 93.7%; the fraction remaining at 1 h, 2 µM was 84.5%; the amount remaining at 2 h, 2 µM is 77.7%. Moreover, the IC50 in the data set on rat GABAA ion channel was 2.1 ± 0.3 µM.

Turning to `C=C(C)[C@@H]1[C@H]2OC(=O)[C@@H]1[C@]1(O)C[C@H]3O[C@]34C(=O)O[C@H]2[C@]14C` [PXN, picrotoxinin], in data set [1], the “T½ in human plasma” value was 1.8 h; the half-life at 2 µM is 1.8 h; the share remaining at 0 h, 2 µM came to 100%; the fraction remaining at 10 min, 2 µM is 130%. Moreover, in data set [1], the amount remaining at 0.5 h, 2 µM was 114%; the share remaining at 1 h, 2 µM amounted to 72.9%; the amount remaining at 2 h, 2 µM was 55.8%. The “half-life in mouse plasma” value in data set [2] is on record as ~ 1 h.
